Source: publication PMC6021035, “Insights into biological activity of ureidoamides with primaquine and amino acid moieties” (Journal of Enzyme Inhibition and Medicinal Chemistry, 2018)
≈ marks a conversion by molar mass, not a printed value.

Key:
E. coli = test: MIC determination, E. coli as summarised in text; format: cell-based; conditions: Escherichia coli, both strains
Method: Before analysis, compounds 5a–f were dissolved in 96% ethanol in a concentration of 2 mg/ml as stock solutions. Inoculums were prepared with fresh cultures of microbial strains, cultured on tryptic-soy agar or Sabouraud 2% (m/v) dextrose agar for 18 h (48–72 h for fungi) at 30 °C with physiological saline containing approximately […]. Inoculum density (0.5 McFarland units) was adjusted with a bio Mériex (France) densitometer. Minimum inhibitory concentration (MIC) was determined by the twofold micro-dilution method in Mu¨ller–Hinton broth for bacterial strains and RPMI 1640 + 2% m/v dextrose for fungi according to the EUCAST recommendations in a sterile 96-well flat-bottom plastic tissue culture plate. MIC was determined using a linear regression curve after incubation of compounds and reading the optical density at 570 nm using an iEMS microplate reader. […] All tests were performed in triplicate and expressed as the mean.

E. coli (both strains) = test: Minimum biofilm eradication assay, E. coli both strains; format: cell-based, Escherichia coli
Method: We tested the susceptibility of different bacterial and yeast strains to compounds 5a–f by determining the minimum biofilm eradication concentration (MBEC). The test was performed in a sterile 96-well flat-bottom plastic tissue culture plate (TPP, Switzerland). Each well was filled with 100 µl of bacterial (10^7 CFUs/ml) or yeast (5 × 10^6 CFUs/ml) suspension. When the possibility of inhibition of yeast biofilm formation was tested, the wells were pre-treated with FBS (250 µl per well). Negative controls contained broth only. Positive controls were performed using standard antibacterial and antifungal drugs gentamycin and amphotericin B, respectively. The plates were covered and incubated aerobically for 24 h (bacteria) or 48 h (yeast) at 37 °C. Following the incubation period, each well was aspirated and washed three times with 250 µl of PBS and vigorously shaken in order to remove all non-adherent bacteria/yeast. The remaining attached cells were fixed with methanol (15 min) and the plates were left to dry overnight. The formed biofilm was stained with crystal violet (1%, 5 min). Excess stain was rinsed by placing the plate under running tap water and the plates were left to dry for 24 h. Adherent cells were resolubilized with acetic acid (33%, v/v). The optical density of each well was measured at 570 nm using a Multiscan plate reader. […]

| Structure (SMILES) | MIC (E. coli) [µg/mL] | MBEC (E. coli (both strains)) [µg/mL] |
| --- | --- | --- |
| COc1cc(NC(C)CCCNC(=O)NC(C(=O)NC(c2ccccc2)c2ccc(Cl)cc2)c2ccc(Cl)cc2)c2ncccc2c1 (centres unmarked) [Compound 5e, 2–(4-chlorophenyl)-N-[(4-chlorophenyl)(phenyl)methyl]-2-[({4-[(6-methoxyquinolin-8-yl)amino]pentyl}carbamoyl)amino]acetamide] | 45 to 60 (≈ 67.1 to 89.5 µM) | – |
| COc1cc(NC(C)CCCN)c2ncccc2c1 (centres unmarked) [PQ, 8-[(4-amino-1-methylbutyl)amino]-6-methoxyquinoline, reference compound] | – | 25 |
